These are literature values, as cited in patent US20060234993A1, “Use of androstane derivatives for enhancing physical performance” (priority 2005, published 2006).

Structures are written as SMILES. Read-outs that look alike come from different tables or passages of the source.

For data set [1] the following is noted: in vivo.

As to `C[C@]12CC[C@@H](O)C[C@H]1CC[C@@H]1[C@@H]2CC[C@]2(C)C(=O)CC[C@@H]12` [Etiocholanolone, 3-alpha (beta)-hydroxy-5β-androstan-17-one], the body weight entry in the data set with mice (normal mice) and in the data set on mice (obese mice) was “reduce body weight” in each case. With `C[C@]12CC[C@H](O)CC1=CC[C@@H]1[C@@H]2CC[C@]2(C)C(=O)CC[C@@H]12` [DHEA, dehydroepiandrosterone], the “estrogenic and androgenic side effects, including gynecomastia, water retention (edema), fat retention, prostate enlargement, acne, hair loss” value in data set [1] was “negative estrogenic and androgenic side effects”.
